Tests used:
Experiment in all cases: in vitro antibacterial evaluation, MIC by broth dilution
Type in all cases: cell-based
Enterococcus sp. = details: broth dilution, 18 hours at 35° C.
Summary of the method: (§1)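 MIC, the lowest antibiotic concentration preventing growth, was read across 64-0.06 μg/mL with 5×10^5 CFU/mL inoculum. Method followed NCCLS M7-A2 broth dilution using Mueller-Hinton II; Gram-positive strains covered recent methicillin-, penicillin- and/or vancomycin-resistant clinical isolates.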

Escherichia coli = details: 18 hours at 35° C.
Summary of the method: as §1

Staphylococcus sp. = details: broth dilution, 18 hours at 35° C.
Summary of the method: as §1

Streptococcus sp. = details: broth dilution, 18 hours at 35° C.
Summary of the method: as §1

CC(c1ccccc1)C1NC(=O)CNC(=O)C(CO)NC(=O)C(C(O)C2CNC(=N)N2C2OC(CO)C(O)C(O)C2O)NC(=O)C(C(O)C2CNC(=N)N2)NC(=O)C(Cc2ccc(OC3OC(CO)C(OC4OC(CO)C(O)C5OC(c6ccccc6)OC45)C(O)C3O)cc2)NC1=O (single isomer, unassigned) [Example 104b, Cyclo[glycyl-β-methylphenylalanyl-O-[4-O-(2,3-O-benzylidenehexopyranosyl)hexopyranosyl]-tyrosyl-3-(2-iminoimidazolidin-4-yl)seryl-3-(3-hexopyranosyl-2-iminoimidazolidin-4-yl)-serylseryl]]
>0.5 µg/mL: MIC Escherichia coli (ATCC 25922) (Escherichia coli; strain ATCC 25922) | MIC Escherichia coli (GC 4559) (Escherichia coli; strain GC 4559)
2 µg/mL: MIC Coagulase Negative Staphylococcus (GC 6257) (Staphylococcus sp.) | MIC Coagulase Negative Staphylococcus (GC 6257) (Staphylococcus sp.; strain GC 6257)
0.5 µg/mL: MIC Enterococcus avium (GC 4558) (Enterococcus sp.; Enterococcus avium (GC 4558)) | MIC Enterococcus faecalis (ATCC 29212) (Enterococcus sp.; Enterococcus faecalis (ATCC 29212)) | MIC Enterococcus faecalis (GC 2242) (Enterococcus sp.; Enterococcus faecalis (GC 2242)) | MIC Enterococcus faecalis (GC 2691) (Enterococcus sp.; Enterococcus faecalis (GC 2691)) | MIC Enterococcus faecalis (GC 3059) (Enterococcus sp.; Enterococcus faecalis (GC 3059)) | MIC Enterococcus faecalis (GC 4552) (Enterococcus sp.; Enterococcus faecalis (GC 4552)) | MIC Enterococcus faecalis (GC 4553) (Enterococcus sp.; Enterococcus faecalis (GC 4553)) | MIC Enterococcus faecalis (GC 4554) (Enterococcus sp.; Enterococcus faecalis (GC 4554)) | MIC Enterococcus faecalis (GC 6189) (Enterococcus sp.; Enterococcus faecalis (GC 6189)) | MIC Enterococcus faecium (GC 2243) (Enterococcus sp.; Enterococcus faecium (GC 2243)) | MIC Enterococcus faecium (GC 4556) (Enterococcus sp.; Enterococcus faecium (GC 4556)) | MIC Enterococcus faecium (GC 4557) (Enterococcus sp.; Enterococcus faecium (GC 4557)) | MIC Enterococcus faecalis (ATCC 29212) (Enterococcus sp.; strain ATCC 29212) | MIC Enterococcus faecalis (GC 2242) (Enterococcus sp.; strain GC 2242) | MIC Enterococcus faecium (GC 2243) (Enterococcus sp.; strain GC 2243) | MIC Enterococcus faecalis (GC 2691) (Enterococcus sp.; strain GC 2691) | MIC Enterococcus faecalis (GC 3059) (Enterococcus sp.; strain GC 3059) | MIC Enterococcus faecalis (GC 4552) (Enterococcus sp.; strain GC 4552) | MIC Enterococcus faecalis (GC 4553) (Enterococcus sp.; strain GC 4553) | MIC Enterococcus faecalis (GC 4554) (Enterococcus sp.; strain GC 4554) | MIC Enterococcus faecium (GC 4556) (Enterococcus sp.; strain GC 4556) | MIC Enterococcus faecium (GC 4557) (Enterococcus sp.; strain GC 4557) | MIC Enterococcus avium (GC 4558) (Enterococcus sp.; strain GC 4558) | MIC Enterococcus faecalis (GC 6189) (Enterococcus sp.; strain GC 6189) | MIC Escherichia coli (GC 4560) (Escherichia coli; strain GC 4560) | MIC Staphylococcus aureus (ATCC 29213) (Staphylococcus sp.) | MIC Staphylococcus aureus (GC 1131) (Staphylococcus sp.) | MIC Staphylococcus aureus (GC 3051) (Staphylococcus sp.) | MIC Staphylococcus aureus (GC 3053) (Staphylococcus sp.) | MIC Staphylococcus aureus (GC 4541) (Staphylococcus sp.) | MIC Staphylococcus aureus (GC 4542) (Staphylococcus sp.) | MIC Staphylococcus aureus (GC 4544) (Staphylococcus sp.) | MIC Staphylococcus aureus (GC 4545) (Staphylococcus sp.) | MIC Staphylococcus aureus-SMITH (GC 4543) (Staphylococcus sp.) | MIC Staphylococcus haemolyticus (GC 4546) (Staphylococcus sp.) | MIC Staphylococcus haemolyticus (GC 4546) (Staphylococcus sp.; strain GC 4546) | MIC Staphylococcus aureus-SMITH (GC 4543) (Staphylococcus sp.; strain SMITH GC 4543) | MIC Staphylococcus aureus (ATCC 29213) (Staphylococcus sp.; strain ATCC 29213) | MIC Staphylococcus aureus (GC 1131) (Staphylococcus sp.; strain GC 1131) | MIC Staphylococcus aureus (GC 3051) (Staphylococcus sp.; strain GC 3051) | MIC Staphylococcus aureus (GC 3053) (Staphylococcus sp.; strain GC 3053) | MIC Staphylococcus aureus (GC 4541) (Staphylococcus sp.; strain GC 4541) | MIC Staphylococcus aureus (GC 4542) (Staphylococcus sp.; strain GC 4542) | MIC Staphylococcus aureus (GC 4544) (Staphylococcus sp.; strain GC 4544) | MIC Staphylococcus aureus (GC 4545) (Staphylococcus sp.; strain GC 4545) | MIC Streptococcus agalactiae (GC 4564) (Streptococcus sp.; Streptococcus agalactiae (GC 4564)) | MIC Streptococcus agalactiae (GC 4564) (Streptococcus sp.; strain GC 4564)
8 µg/mL: MIC Coagulase Negative Staphylococcus (GC 4551) (Staphylococcus sp.) | MIC Coagulase Negative Staphylococcus (GC 4551) (Staphylococcus sp.; strain GC 4551)
4 µg/mL: MIC Coagulase Negative Staphylococcus (GC 4547) (Staphylococcus sp.) | MIC Coagulase Negative Staphylococcus (GC 4548) (Staphylococcus sp.) | MIC Coagulase Negative Staphylococcus (GC 4549) (Staphylococcus sp.) | MIC Coagulase Negative Staphylococcus (GC 4547) (Staphylococcus sp.; strain GC 4547) | MIC Coagulase Negative Staphylococcus (GC 4548) (Staphylococcus sp.; strain GC 4548) | MIC Coagulase Negative Staphylococcus (GC 4549) (Staphylococcus sp.; strain GC 4549)
0.12 µg/mL: MIC Streptococcus pneumoniae (ATCC 6301) (Streptococcus sp.; Streptococcus pneumoniae (ATCC 6301)) | MIC Streptococcus pneumoniae (GC 1894) (Streptococcus sp.; Streptococcus pneumoniae (GC 1894)) | MIC Streptococcus pneumoniae (GC 4565) (Streptococcus sp.; Streptococcus pneumoniae (GC 4565)) | MIC Streptococcus pyogenes (GC 4563) (Streptococcus sp.; Streptococcus pyogenes (GC 4563)) | MIC Streptococcus pneumoniae (ATCC 6301) (Streptococcus sp.; strain ATCC 6301) | MIC Streptococcus pneumoniae (GC 1894) (Streptococcus sp.; strain GC 1894) | MIC Streptococcus pyogenes (GC 4563) (Streptococcus sp.; strain GC 4563) | MIC Streptococcus pneumoniae (GC 4565) (Streptococcus sp.; strain GC 4565)

Reference: US6914045B2, “Glycopeptide antibiotics” (Wyeth Holdings Corporation, priority 2001, dated 2005)
